# Legend:
# Herpes Simplex Type I = experiment: Inhibition of viral cytopathic effect (visual CPE and neutral red), HSV-1 in MRC-5 cells; assay type: cell-based, type 1 herpes (HSV-1); settings: for EC50: EXPT EV/H1C2
# in vitro [1] = settings: human
# Vaccinia Virus = experiment: microbe, parasite or virus in culture; assay type: cell-based; settings: for EC50: Orthopoxvirus vaccinia, EXPT EV/VC2
# in vitro [2] = settings: African green monkey
# San Angelo Virus = experiment: microbe, parasite or virus in culture; assay type: cell-based
# Simian Rotavirus = experiment: Inhibition of viral cytopathic effect (visual CPE and neutral red), simian rotavirus in MA104 cells; assay type: cell-based; settings: for EC50: Rotavirus A, EXPT EV/RtC2
# [3] = tested on: Venezuelan Equine Encephalitis; experiment: microbe, parasite or virus in culture; assay type: cell-based, Venezuelan equine encephalitis virus; settings: for EC50: Venezuelan equine encephalitis virus, EXPT EV/VEC4
# [4] = tested on: African green monkey kidney (Vero) cells
# in vitro [5] = settings: African green monkey; remark: listed apart in the source
# in vitro [6] = settings: African green monkey; remark: listed apart in the source
# in vitro [7] = settings: African green monkey; remark: listed apart in the source
smiles,measurement,setting,value
"Nc1nc2c(ncn2COCCO)c(=O)[nH]1 [Acyclovir, acyclovir]",EC50,"Herpes Simplex Type I; Human alphaherpesvirus 1, MRC5, neutral red assay",0.4 µg/mL
same,EC50,"Herpes Simplex Type I; Human alphaherpesvirus 1, MRC5, visual CPE",0.6 µg/mL
same,COMMENT,Herpes Simplex Type I; neutral red assay,Excellent activity.
same,COMMENT,Herpes Simplex Type I; visual,Excellent activity.
same,CC50,in vitro [1],> 100 µg/mL
"Nc1ccn(C[C@@H](CO)OCP(=O)(O)O)c(=O)n1 [HPMPC, cidofovir]",EC50,"Vaccinia Virus; CV-1, neutral red assay",1.7 µg/mL
same,EC50,"Vaccinia Virus; CV-1, visual CPE",5.4 µg/mL
same,COMMENT,Vaccinia Virus; neutral red assay,Excellent activity.
same,COMMENT,Vaccinia Virus; visual,Very good activity.
same,CC50,in vitro [2],> 100 µg/mL
"NC(=O)c1ncn([C@@H]2O[C@H](CO)[C@@H](O)[C@H]2O)n1 [Ribavirin, ribavirin]",COMMENT,San Angelo Virus,Very good activity.
same,EC50,"San Angelo Virus; San Angelo virus, Vero",30 µg/mL
same,EC50,"Simian Rotavirus; MA104, neutral red assay",56 µg/mL
same,EC50,"Simian Rotavirus; MA104, visual CPE",18 µg/mL
same,COMMENT,Simian Rotavirus; neutral red assay,Slight activity.
same,COMMENT,Simian Rotavirus; visual,Moderate activity.
same,EC50,"[3]; MA104, neutral red assay, neutral red data questionable",> 100 µg/mL
same,EC50,"[3]; MA104, visual CPE",7.6 µg/mL
same,COMMENT,[3]; visual,Very good activity.
same,CC50,[4],530 µg/mL
same,CC50,in vitro [5],560 µg/mL
same,CC50,in vitro [6],> 100 µg/mL
same,CC50,in vitro [7],> 100 µg/mL
